According to patent publication US12540141B2, “Spiropyrrolidine derived antiviral agents” (priority 2020, dated 2026):
pEC50, pIC50: −log10 of the molar value. Read-outs that look alike come from different tables or passages of the source.

How the values were obtained:
[1] = target: SARS-CoV-2 3CL-protease (Severe acute respiratory syndrome coronavirus 2, UniProt P0DTD1); assay: SARS-CoV-2 3C-Like (3CL) Protease Fluorescence Assay (FRET); format: biochemical; conditions: SARS-CoV-2 3CL-protease 10 nM, 30 min preincubation at RT, substrate 40 μM
[2] = test system: 229E human corona virus (hCoV); assay: 229E Live Virus Assay (MRC-5 cells, CPE read by ATPlite); format: cell-based, hCoV-229E
[3] = Human coronavirus 229E, MRC5, hCoV-229E live virus in MRC-5 cells, MOI 0.05, CPE by ATPlite, run in duplicate

SMILES | pIC50 [1] | pEC50 [2, 3] | pEC50 [2] | pEC50 ([2]; hCoV-229E live virus in MRC-5 cells, MOI 0.05, CPE by ATPlite, run in duplicate)
CN(C(=O)[C@H](O)c1ccc(F)cc1)[C@@H](CC1CC1)C(=O)N1C[C@]2(C[C@H]1C#N)C(=O)Nc1ccccc12 [Example 415] | > 7.00 | > 7.00 |  | 
C[C@H](OC(=O)N[C@@H](CC(C)(C)C)C(=O)N1C[C@]2(C[C@H]1C#N)C(=O)Nc1ccc(Cl)cc12)c1ccc(F)cc1 [Example 494] |  |  | 6.00 to 7.00 | 
COc1cc(Cl)cc(C(=O)N(C)[C@@H](CC(C)C)C(=O)N2C[C@]3(C[C@H]2C#N)C(=O)Nc2ccccc23)c1 [Example 180] | > 7.00 | > 7.00 |  | 
[2H]C([2H])([2H])N(C(=O)[C@H](O)c1ccc(F)cc1)[C@@H](CC1CC1)C(=O)N1C[C@]2(C[C@H]1C#N)C(=O)Nc1ccccc12 [Example 422] | > 7.00 | > 7.00 |  | 
COc1cc(C(=O)N(C)[C@@H](CC(C)C)C(=O)N2C[C@]3(C[C@H]2C#N)C(=O)Nc2ccccc23)cc2c1=NC(C1CC1)N=2 (stereo partly drawn) [Example 308] | > 7.00 | 6.00 to 7.00 |  | 
CN(C(=O)[C@@H](O)c1ccc(F)cc1)[C@@H](CC1CC1)C(=O)N1C[C@]2(C[C@H]1C#N)C(=O)Nc1ccccc12 [Example 414, (S)—N—((S)-1-((3R,5′S)-5′-cyano-2-oxospiro[indoline-3,3′-pyrrolidin]-1′-yl)-3-cyclopropyl-1-oxopropan-2-yl)-2-(4-fluorophenyl)-2-hydroxy-N-methyl acetamide] | > 7.00 | > 7.00 |  | 
CC(C)C[C@@H](C(=O)N1C[C@]2(C[C@H]1C#N)C(=O)Nc1ccccc12)N(C)C(=O)c1ccc2ccc(Br)cc2c1 [Example 230] | 6.00 to 7.00 | > 7.00 |  | 
CC(C)C[C@@H](C(=O)N1C[C@]2(C[C@H]1C#N)C(=O)Nc1ccccc12)N(C)C(=O)c1ccc(-c2ccccc2)cn1 [Example 232] | 6.00 to 7.00 | > 7.00 |  | 
CC(C)C[C@@H](C(=O)N1C[C@]2(C[C@H]1C#N)C(=O)Nc1ccccc12)N(C)C(=O)c1cc(OC2CC2)c2c(c1)=NC(C1CC1)N=2 (stereo partly drawn) [Example 307] | 6.00 to 7.00 | 6.00 to 7.00 |  | 
COc1cc(C(=O)N(C)[C@@H](CC(C)C)C(=O)N2C[C@]3(C[C@H]2C#N)C(=O)Nc2ccccc23)cn2cc(C(F)F)nc12 [Example 255] |  |  |  | > 7.00
CC(C)(C)C[C@H](NC(=O)c1cn(C2CC2)nn1)C(=O)N1C[C@]2(C[C@H]1C#N)C(=O)Nc1ccccc12 [Example 141] | > 7.00 |  |  | 
[2H]C([2H])([2H])N(C(=O)c1cn(CC(F)(F)F)nn1)[C@@H](CC(C)(C)C)C(=O)N1C[C@]2(C[C@H]1C#N)C(=O)Nc1ccccc12 [Example 380] | > 7.00 |  |  | 
CN(C(=O)c1cnc(C(C)(C)C)[nH]1)[C@@H](CC1CC1)C(=O)N1C[C@]2(C[C@H]1C#N)C(=O)Nc1ccccc12 [Example 410] | > 7.00 |  |  | 
CC(C)C[C@@H](C(=O)N1C[C@]2(C[C@H]1C#N)C(=O)Nc1ccccc12)N(C)C(=O)c1nnc(C2CC2)o1 [Example 354] | > 7.00 |  |  | 
C[C@@H]1COC[C@H](C)N1CCC(=O)N(C)[C@@H](CC(C)(C)F)C(=O)N1C[C@]2(C[C@H]1C#N)C(=O)Nc1ccccc12 [Example 546] | > 7.00 |  |  | 
CC(C)C[C@@H](C(=O)N1C[C@]2(C[C@H]1C#N)C(=O)Nc1ccccc12)N(C)C(=O)c1nnc(-c2ccc(F)cc2)o1 [Example 355] | > 7.00 |  |  | 
